Measured values: article PMC12108179, “Porcine β-Defensin 2 Expressed in Pichia pastoris Alleviates Enterotoxigenic Escherichia coli-Induced Intestinal Injury and Inflammatory Response in Mice” (Animals : an Open Access Journal from MDPI, 2025)
Where no end group is shown, it is not given here.

Key:
E. coli K88 = assay: ETEC7-infected mouse model: E. coli loads in stool and colon; assay type: in vivo; details: ETEC7-infected ICR mice, COL group, 9000 U orally for 7 days, p < 0.05, n = 6/group
From the text: The animal experiment was approved by the Animal Ethics and Welfare Committee of Huazhong Agricultural University, Wuhan, China (HZAUMO-2023-0264). The animal model was established as in our previous experiment. Female ICR mice (3–4 weeks old) were obtained from the Laboratory Animals Center of Huazhong Agricultural University. After 5 days of adaptation, 36 mice were randomly assigned into 6 groups (n = 6/group), namely, a control group (only phosphate-buffered saline (PBS) treatment), the ETEC7 group (ETEC7 and PBS treatment), the COL group (ETEC7 and 9000 U colistin sulfate treatment), the HP group (ETEC7 and 16 AU rPBD2 treatment), the MP group (ETEC7 and 8 AU rPBD2 treatment), and the LP group (ETEC7 and 4 AU rPBD2 treatment). […]
(§1) Body weight change was calculated as ((final body weight − initial body weight)/initial body weight) × 100%. Diarrhea scores were recorded at 1, 3, 5, and 7 days post infection (dpi) based on the following scoring criteria: (1) normal stool: 0 point; (2) color change/consistency: 1 point; (3) presence of wet tail or mucosa: 2 points; (4) watery stool: 3 points. […] Intestine water content (intestine/carcass ratio) was measured as described previously. The cecum index was calculated as cecum weight (g)/body weight (g). […]

ETEC7 [1] = assay: ETEC7-infected mouse model: clinical symptoms (body weight, diarrhea score, intestine/carcass ratio, cecum index); assay type: in vivo, ICR mice; details: 9000 U orally for 7 days, n = 6/group
From the text: (§2) The animal experiment was approved by the Animal Ethics and Welfare Committee of Huazhong Agricultural University, Wuhan, China (HZAUMO-2023-0264). The animal model was established as in our previous experiment. Female ICR mice (3–4 weeks old) were obtained from the Laboratory Animals Center of Huazhong Agricultural University. After 5 days of adaptation, 36 mice were randomly assigned into 6 groups (n = 6/group), namely, a control group (only phosphate-buffered saline (PBS) treatment), the ETEC7 group (ETEC7 and PBS treatment), the COL group (ETEC7 and 9000 U colistin sulfate treatment), the HP group (ETEC7 and 16 AU rPBD2 treatment), the MP group (ETEC7 and 8 AU rPBD2 treatment), and the LP group (ETEC7 and 4 AU rPBD2 treatment). The mice were fed antibiotics, including kanamycin (400 mg/L), gentamicin (35 mg/L), vancomycin (45 mg/L), metronidazole (215 mg/L), and colistin (850 U/mL), in drinking water for 72 h and were then fed normal water for another 24 h. All mice were fasted for 12 h and then were orally gavaged with 200 μL 3% NaHCO3 30 min prior to the challenge with 10^9 CFU of ETEC7. The mice were orally infected with ETEC7 once a day for 3 days. […] The control and ETEC7 groups were administrated with the same volume of PBS. All mice were treated with PBS, colistin sulfate, or rPBD2 for 7 continuous days.
as §1, with “points. A score of 1 was considered diarrhea. Fresh stools and 1 cm colon were collected and suspended in sterile PBS. Ten-fold serial dilutions of stool or colon homogenate were plated on MacConkey plates containing 100 μg/mL ampicillin.” for “points.”

ETEC7 [2] = assay: ETEC7-infected mouse model: ileum morphology (HE staining); assay type: in vivo; details: ETEC7-infected ICR mice, 7 dpi, n = 6/group
From the text: as §2
as §1, with “points. A score of 1 was considered diarrhea. Fresh stools and 1 cm colon were collected and suspended in sterile PBS. Ten-fold serial dilutions of stool or colon homogenate were plated on MacConkey plates containing 100 μg/mL ampicillin.” for “points.”

TNF-α = assay: ETEC7-infected mouse model: serum cytokine ELISA; assay type: in vivo; details: ETEC7-infected ICR mice, 9000 U (COL group) orally for 7 days, 7 dpi, p < 0.05, n = 6/group
From the text: as §2
as §1, with “points. A score of 1 was considered diarrhea. Fresh stools and 1 cm colon were collected and suspended in sterile PBS. Ten-fold serial dilutions of stool or colon homogenate were plated on MacConkey plates containing 100 μg/mL ampicillin.” for “points.”

IL-6 = assay: ETEC7-infected mouse model: serum cytokine ELISA; assay type: in vivo; details: ETEC7-infected ICR mice, 9000 U (COL group) orally for 7 days, 7 dpi, p < 0.05, n = 6/group
From the text: as §2
as §1, with “points. A score of 1 was considered diarrhea. Fresh stools and 1 cm colon were collected and suspended in sterile PBS. Ten-fold serial dilutions of stool or colon homogenate were plated on MacConkey plates containing 100 μg/mL ampicillin.” for “points.”

IL-10 = assay: ETEC7-infected mouse model: serum cytokine ELISA; assay type: in vivo; details: ETEC7-infected ICR mice, 9000 U orally for 7 days, 7 dpi, among the groups, p > 0.05, n = 6/group
From the text: as §2
as §1, with “points. A score of 1 was considered diarrhea. Fresh stools and 1 cm colon were collected and suspended in sterile PBS. Ten-fold serial dilutions of stool or colon homogenate were plated on MacConkey plates containing 100 μg/mL ampicillin.” for “points.”

[3] = in the presence of 150 mM NaCl or 2.5 mM CaCl2; cited from earlier work
From the text: It has been reported that PBD2 has antibacterial activity against Gram-positive and -negative bacteria. […] When AMPs are used in the animal industry, many factors, including temperature, pH, enzymes, and salt ions, may affect their activities. […] This may allow crude rPBD2 to endure the ...

[4] = 9000 U (COL group) orally for 7 days, p < 0.05

Row | Substance | colonized numbers of E. coli K88 in the colon (E. coli K88; 7 dpi) | bacterial loads in feces (E. coli K88; vs ETEC7 group) | diarrhea scores (ETEC7 [1]; ETEC7-infected ICR mice, 1, 3, 5, 7 dpi, vs ETEC7 group) | cecum index (ETEC7 [1]; ETEC7-infected ICR mice, 7 dpi, among the groups) | final body weight (ETEC7 [1]; female ICR mice, ETEC7 10^9 CFU orally once a day for 3 days, 7 dpi, among groups, p > 0.05) | VH/CD (villus height/crypt depth, ileum) (ETEC7 [2]; [4]) | villus height (ileum) (ETEC7 [2]; [4]) | crypt depth (ileum) (ETEC7 [2]; 9000 U orally for 7 days, among the groups, p > 0.05) | serum TNF-α levels (TNF-α) | serum IL-6 levels (IL-6) | serum IL-10 levels (IL-10) | antibacterial activity in the presence of salts [3]
1 | colistin sulfate | lower than those in the ETEC7 group | significantly decreased | relative lower diarrhea scores but without significant differences | no significant differences | no significant differences | significantly increase | significantly increase | no significant differences | significantly decrease | could decrease the levels of IL-6 | no significant differences | 
2 | synthetic human β-defensin 3 (hBD-3): synthetic human β-defensin 3, literature comparison (GIINTLQKYYCRVRGGRCAVLSCLPKEEQIGKCSTRGRKCCRRKK; ends and bridges not checked; cysteine pairing not given here; UniProt P81534 23-67, looked up) |  |  |  |  |  |  |  |  |  |  |  | completely abolished
